Data reported in patent publication US6485756B1, “Stable, homogeneous natural product extracts containing polar and apolar fractions” (Collaborative Technologies, Inc., priority 1999, dated 2002).
Where “and” joins values, the source holds several entries; their conditions need not be identical. Identical values can stand only once.

Tests used:
[1] = molecular target: T1, Human Leukocyte Elastase (Homo sapiens, UniProt P08246); conditions: Ying et al., Biochem. J. 1991; cited from earlier work
T1 sequence (P08246 30-267): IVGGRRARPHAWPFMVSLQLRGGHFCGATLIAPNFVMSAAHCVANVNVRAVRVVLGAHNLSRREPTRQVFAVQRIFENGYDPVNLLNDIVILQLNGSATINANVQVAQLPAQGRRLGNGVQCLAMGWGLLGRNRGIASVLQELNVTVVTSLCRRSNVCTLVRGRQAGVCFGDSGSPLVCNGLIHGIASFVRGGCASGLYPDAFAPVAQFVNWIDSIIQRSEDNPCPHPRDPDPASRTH

[2] = Lipid Peroxidation assay; type: biochemical; conditions: for OD532 at indicated time (min) 0: 0 min; for OD532 at indicated time (min) 60: 60 min; for OD532 at indicated time (min) 120: 120 min; for OD532 at indicated time (min) 240: 240 min
Method: Lipid Peroxidation Assay Thiobarbituric acid (“TBA”; […]), sodium dodecyl sulfate ([…]), butylated hydroxytoluene (B1378), […]) and phosphate-buffered saline (“PBS”; 1000-3) were obtained from Sigma. Lecithin (429415) was obtained from Calbiochem. Ethanol (122898) was obtained from Aaper Alcohol and Chemical Co. Vitamin C (95209) was obtained from Fluka. Ferric chloride (AR5029) was obtained from Mallinckrodt. Optical densities were determined using a SpectraMax 250 spectrophotometer (Molecular Devices). Ultraviolet irradiation was performed using a model VWR […] Chromato-Vue transilluminator (VWR Scientific). The Lipid Peroxidation assay measures inhibition of UV-induced lipid oxidation. The reaction was performed at room temperature by irradiating liposome solutions, containing varying concentrations of test samples, with ultraviolet C light. The extent of lipid peroxidation induced by the UV light was determined by measuring the consequent production of malondialdehyde that results from breakdown of oxidized lipid. […] Vitamin C, a peroxyl radical scavenger, was included in each assay as a control for inhibition of lipid oxidation. Duplicate aliquots of the irradiation mixtures were harvested at several time points and their malondialdehyde contents were measured using the “thiobarbituric acid reaction”. […] The mixtures were heated at 100° C. for 15 minutes, cooled to room temperature and their absorbencies were read at 532 and 650 nm. The readings at 650 nm were subtracted from those at 532 nm to correct for turbidity. These corrected absorbencies were plotted as a function of irradiation time and the rate of lipid peroxidation was determined by linear regression curve fit.

[3] = tested on: Cloudman S91 melanocytes; assay: Melanocyte pigmentation assay; type: cell-based; conditions: conc. 30 μm; positive control
Method: Melanocyte Pigmentation Assay
The following materials were used in the melanocyte pigmentation assay. Cloudman S91 cells (36-1-38C8-16) were obtained from American Type Culture Collection. Dulbecco's Modified Eagle's Medium (“DMEM”; 11885-076), heat-inactivated horse serum (26050-088), heat-inactivated fetal bovine serum (10082-147) and 5000 units/ml penicillin/50 μg/ml streptomycin (15070-063) were obtained from Gibco BRL. Phosphate-buffered saline (PBS; 1000-3), dimethyl sulfoxide (D2650), hydroquinone (H9003), α-melanocyte stimulating hormone (M4135), trichloroacetic acid (T9159) and sodium hydroxide (S8045) were obtained from Sigma. Optical densities were determined using a Dynatech MR5000 spectrophotometer.
The melanocyte pigmentation assay measures a test sample's ability to inhibit pigmentation. […] After a 5-day treatment period with each condition tested in triplicate wells, the cells were harvested by washing with PBS and adding 5% trichloroacetic acid to each well. […] 200 μl of each digestion mixture was then transferred to a well of a 96-well microtiter plate and optical densities were read at 405 nm.
Inhibition of pigmentation is expressed as the percentage decrease in optical density compared to that for untreated cells (no test sample or hydroquinone). […]

[4] = tested on: Dopa Oxidase Activity of a Mushroom Tyrosinase; conditions: Shin et al., BBRC 1998; cited from earlier work

C[C@H]1[C@H](C)CC[C@]2(C(=O)O)CC[C@]3(C)C(=CC[C@@H]4[C@@]5(C)CC[C@H](O)C(C)(C)[C@@H]5CC[C@]43C)[C@H]12 [Ursolic acid]
elastase inhibition (in words) [1]: potent elastase inhibitor

O=C1O[C@H]([C@@H](O)CO)C(O)=C1O [Vitamin C]
% antioxidant effect ([2]; Sample conc. 0.03 %): 82% and 90%
Rate of Lipid Peroxidation ([2]; Sample conc. 0.03 %): 54 MOD532/min and 30 MOD532/min
OD532 at indicated time (min) 0 ([2]; Sample conc. 0.03 %): 0.012 and 0.014
OD532 at indicated time (min) 60 ([2]; Sample conc. 0.03 %): 0.013 and 0.0125
OD532 at indicated time (min) 120 ([2]; Sample conc. 0.03 %): 0.016 and 0.014
OD532 at indicated time (min) 240 ([2]; Sample conc. 0.03 %): 0.025 and 0.0205
% antioxidant effect ([2]; Sample conc. 0.3 %): 97% and 99%
OD532 at indicated time (min) 0 ([2]; Sample conc. 0.3 %): 0.011
OD532 at indicated time (min) 60 ([2]; Sample conc. 0.3 %): 0.012 and 0.011
OD532 at indicated time (min) 120 ([2]; Sample conc. 0.3 %): 0.013 and 0.011
OD532 at indicated time (min) 240 ([2]; Sample conc. 0.3 %): 0.012

Oc1ccc(O)cc1 [hydroquinone]
% inhibition [3]: 28%
Culture pigmentation (OD405nm) mean [3]: 0.747

Oc1cc(O)cc(/C=C/c2ccc(O)cc2O)c1 [oxyresveratrol]
tyrosinase inhibition (in words) [4]: very potent tyrosinase inhibitor
